Measured values: article PMC9979163, “Discovery and functional characterization of N-(thiazol-2-yl)-benzamide analogs as the first class of selective antagonists of the Zinc-Activated Channel (ZAC)” (Biochemical pharmacology, 2021)

Biological target: T1, ZAC (Homo sapiens, UniProt Q401N2)
T1 sequence (Q401N2 26-412): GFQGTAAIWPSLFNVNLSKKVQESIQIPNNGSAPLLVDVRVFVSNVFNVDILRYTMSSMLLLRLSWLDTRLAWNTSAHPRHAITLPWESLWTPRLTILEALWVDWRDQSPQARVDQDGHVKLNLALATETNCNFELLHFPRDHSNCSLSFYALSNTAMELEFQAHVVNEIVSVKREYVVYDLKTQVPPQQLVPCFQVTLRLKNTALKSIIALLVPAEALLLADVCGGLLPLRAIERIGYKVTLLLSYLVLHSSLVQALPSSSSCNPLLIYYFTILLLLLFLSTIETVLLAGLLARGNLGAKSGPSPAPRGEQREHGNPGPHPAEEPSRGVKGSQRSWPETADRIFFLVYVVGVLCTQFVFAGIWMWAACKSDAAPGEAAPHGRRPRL
Assay: TEVC recordings, H+-evoked currents at ZAC expressed in Xenopus oocytes
Format: cell-based
Experimental: The cDNAs for the various WT and chimeric CLR subunits were linearized and subsequently transcribed and capped mMessage mMachine T7 RNA transcription kit (Ambion, Waltham, MA). […]
On the day of experiment, all compound dilutions were prepared in a saline solution [115 mM NaCl, 2.5 mM KCl, 10 mM MOPS (pH 7.5), 1.8 mM CaCl2, 0.1 mM MgCl2] and pH adjusted to 7.5 (if needed). […] Currents were recorded using pCLAMP 10 (Molecular Devices, Sunnyvale, CA). […]
In all recordings, the compounds or compound combinations were applied in the bath until the peak current decayed to a steady state (up to 30 sec at the most). […] The functional properties of the modulators at the CLRs were determined by pre-application of the modulator to the perfusate 30 sec and followed by co-application of the modulator and the agonist to the perfusate. […]
Data analysis of the results from the TEVC recordings were performed using Clampfit software version 10.5 (Molecular Devices, Crawley, UK) and GraphPad Prism version 7.0c (GraphPad Software, Inc. La Jolla, CA). […] I-V relationships were analyzed by fitting the curves with a third order polynomial model. […]

Q: Which results are given for `CC(C)(C)c1csc(NC(=O)c2cccc(F)c2)n1` [5a, N-(4-(tert-butyl)thiazol-2-yl)-3-fluorobenzamide]?
A: Voltage dependence of ZAC inhibition (10 μM, H+ (pH 6.5)-evoked currents, −60 mV and +60 mV): voltage-independent; IC50 (H+ (pH 6.0) as agonist, TEVC, steady-state current, n = 6): 8.5 µM
